These results are taken from patent US8895522B2, “Composition and method for the prevention, treatment and/or alleviation of an inflammatory disease” (Index Pharmaceuticals AB, priority 2005, dated 2014).

In data set [1] the test system is LPS induced airway inflammation in mice. Description: First animal study: LPS-induced airway inflammation in mice, analysis of leukocytes in BALF. Format: in vivo, C57BL/6 mice. Here is the method: C57BL/6 mice were purchased from Bomholtgaard, Ry, Denmark. Animals were fed with standard chow and water ad libitum and allowed to acclimatize for at least 7 days in an accredited animal facility before use. In all experiments female mice of ages between 9-11 weeks were used. All experiments were approved by the local ethical committee for animal experiments in Umea, Sweden.
Bacterial endotoxin, LPS (Escherichia coli 0128:B12, Sigma, St. Louis, Mo.) was administered to anaesthetised mice (enflurane) by tracheal instillation in a total volume of 50 μl in a concentration of 5 μg. Control mice were given solvent alone (endotoxin-free distilled water). Through previous experiments the optimum concentration of LPS was determined to be 5 μg.
The mice were sacrificed by cervical dislocation 20 h after LPS instillation and their tracheae was cannulated with polyethylene tubing. Bronchoalveolar 20 lavage (BAL) was performed using 1-ml aliquots of ice-cold Hanks balanced salt solution to a recovered volume of 4 ml. Total number of leucocytes in bronchoalveolar lavage fluid (BALF) was counted using a Bürker chamber and trypan blue solution. Differential cell counts were determined on duplicate cytocentrifuged preparations stained with May-Grünewald Gemisa. Three 25 hundred cells were counted from each slide and the percentage of neutrophils determined.
Mice were treated with an experimental oligonucleotide (SEQ.ID.NO 3, in concentrations of 25 μg, 100 μg or 150 μg. The oligonucleotide was administrated by tracheal instillation to anaesthetised mice in a total volume of 50 μl 18 h prior to instillation of 5 μg LPS. Control mice received 50 μl endotoxin-free distilled water.
To compare the effect of the oligonucleotide to conventional treatment with anti-inflammatory corticosteroids, one group of mice received dexamethasone (Sigma St Louis, Mo.). Dexamethasone (10 mg/kg body weight) dissolved in PBS was 6(12) injected intraperitoneally (i.p) into mice 1 h prior LPS exposure. […]
The results are expressed as mean+standard error of the mean (SEM). […]

Data set [2] deals with murine spleen cells. Description: Induction of IFN-gamma from murine spleen cells (ELISpot). The conditions noted are these: mouse splenocytes, 48 hours incubation, FIG. 10. Format: cell-based. Here is the method: (§1) The spleen was excised from a test animal. A single cell suspension was prepared using a nylon cell strainer (100 μm). The cells were washed once in complete RPMI medium at 1200 rpm for 7-10 minutes, whereupon the supernatant was poured off and the cells resuspended. 1 ml of “red blood cell lysing buffer” was added, and the mixture incubated for 1-2 minutes at RT. 5 ml of complete RPMI was added and the mixture centrifuged as above (C2).
(§2) The supernatant was poured off, the pellet resuspended and another 5 ml of complete RPML added. The cells were counted by dilution in trypan blue, so that between 50-100 cells were counted in the area.
(§3) Approximately 500,000 mouse splenocyte cells per well were incubated for 48 hours in the presence of the different oligonucleotides at the concentrations indicated. Specifically, SEQ.ID.NO 3, SEQ.ID.NO 4, and SEQ.ID.NO 7. Following incubation the wells were developed according to the kit suppliers recommendations and the average number of positive spots per well were determined using a AID ELISpot reader system, (Strassberg Germany).
Regarding the production of IFN-gamma, mouse splenocytes were treated as described above, with the intention to monitor levels of IFN-gamma by Elispot asssy. Identical conditions and concentrations of oligonucleotides where used.
(§4) Elispot assays where performed according to the manufactures recommended guidelines (MabTech) and the plates were analyzed using an AID ELISpot reader system (Autoimmun Diagnostika GmbH, Strassberg, Germany).

For data set [3], the system named is LPS induced airway inflammation in mice. The data set is described as follows: Second LPS induced asthma study in mice, BALF cell counts. The format is in vivo. The conditions noted are these: single dose 150 ug tracheal instillation 18 h prior to LPS; BALF 20 h; p=0.005. On the procedure: As with example 2, aim of the study was to examine the pharmaceutical effects of SEQ. ID. NO. 3 using airway inflammation as disease endpoint, and to compare the efficacy with that of corticosteroids. This study included larger numbers of animals per group to increases statistical significance. The induction of LPS induced asthma and the protocol of analyses was conducted as described in example 2.
Briefly, mice were treated with an SEQ.ID.NO 3 (150 μg/animal) administered by tracheal instillation 18 h prior to challenge with 5 μg LPS. One group of mice represented healthy untreated individuals. Control mice were given solvent only (H2O) and LPS. One group received dexamethasone (5 mg/kg) one hour before LPS instillation and one group were given a combination treatment. Analysis of BALF was performed 20 hours after the last treatment. Total number of cells in BALF and number of neutrophils is shown. Data is expressed as mean±SD. ***=p<0.001 and **=p<0.01, in treated groups vs the control group (one-way ANOVA and Bonferroni post hoc test). Calculations were performed by SPSS software (12.0). n=6 in all groups.

In data set [4] the test system is murine spleen cells. Description: Induction of IL-10 from murine spleen cells (ELISpot). Format: cell-based. As to conditions: mouse splenocytes, 48 hours incubation. Here is the method: as §1, §2, §3, §4
Data set [5] has as its system LPS-induced airway inflammation in mice. Description: Third LPS induced asthma study in mice, BALF cell counts. The format is in vivo. Here is the method: As with examples 1 and 2, aim of the study was to examine the pharmaceutical effects of SEQ. ID. NO. 3 using airway inflammation as disease endpoint, and to compare the efficacy with that of corticosteroids. In addition, a number of control oligonucleotides were included being SEQ.ID.NO 4, and SEQ.ID.NO 7. The induction of LPS induced asthma and the protocol of analyses was conducted as described in Example 2.
Briefly, LPS-induced airway inflammation in mice was treated with SEQ.ID.NOs 3, 4 and 7 (150 μg/animal) administered by tracheal instillation 18 h prior to challenge with 5 μg LPS. The untreated group represents healthy individuals and mice in the control group were given solvent only (H2O+LPS). The control treatment of dexamethasone (5 mg/kg, i.p.) was given one hour before LPS instillation. Analysis of BAL fluid was performed 20 hours after LPS instillation. The total number of leukocytes and neutrophils in BAL fluid is shown. Data expressed as mean±SD (n=6). ***p<0.001, *p<0.05, using One-way ANOVA with Dunnett's post hoc corrections versus control group.

Entries after “also recorded” stand apart in the source; their conditions may differ.

As for “5′-G*A*A*ACAGATCGTCCAT*G*G*T-3′ (antisense GAAACAGATCGTCCATGGT; listed as DNA, chemistry not fully specified) [SEQ.ID.NO 3, (Mu p65)AS, CpG-containing ODN]”, in data set [1] (150 μg by tracheal instillation 18 h prior to LPS, BALF 20 h after LPS), the “reduction in the number of recovered neutrophils in BAL” value is listed as “more than 50%”. Moreover, the “anti-inflammatory effect compared with dexamethasone” value in data set [1] (150 μg intratracheal vs dexamethasone 10 mg/kg i.p. 1 h prior to LPS) was “at least as powerful as high-dose treatment with dexamethasone”. In data set [1] (25, 100 or 150 μg by tracheal instillation 18 h prior to 5 μg LPS, BALF 20 h after LPS), the “neutrophils in BALF / neutrophilic response in the airways” value was “dose-dependent reduction; also recorded: significantly reduced neutrophilic response”. Further, the “induction of IFN-gamma compared to medium alone” value in data set [2] is “capable of inducing significant levels of IFN-gamma”. In addition, the “reduction in BAL fluid cell number verses control” value in data set [3] was “approximately 50%”. In data set [4], the “concentration at which IL-10 producing cells are first induced” value worked out at 5 µM. Also, the “induction of IL-10 (positive spots per well)” value in data set [4] (FIG. 9) was “induce significant levels of IL-10”. Moreover, the “influx of leukocytes in BALF compared to the control group” value in data set [5] (150 μg/animal, FIG. 7, significance if the non-responding control individual is excluded) is on record as “significantly reduced inflammatory response”. In data set [5] (150 μg/animal, FIG. 8, significance if the non-responding control individual is excluded), the “influx of neutrophils in BALF compared to the control group” value is listed as “significantly reduced inflammatory response”. Further, the “number of infiltrating inflammatory cells in the BAL fluid” value in data set [5] (oligonucleotides 150 μg/animal tracheal 18 h prior to LPS, dexamethasone 5 mg/kg i.p. 1 h before, FIG. 6) is listed as “reduced numbers of infiltrating inflammatory cells”.
